Patent publication US20130196050A1, “SALTY TASTE ENHANCER” (AJINOMOTO CO., INC., priority 2010, published 2013)

System: salty taste
Experiment: Sensory evaluation of salty taste-enhancing activity (quantitative sensory evaluation test)
Assay type: in vivo, panelists
Protocol: The strength of the salty taste enhancing activity of the compound of Example 35 was examined by a quantitative sensory evaluation test.
The quantitative sensory evaluation test was performed as follows. The strength of the salty taste enhancing activity when the compound of Example 35 as a sample was mixed at 0.00005 to 0.0040 g/dl with distilled water containing sodium chloride (0.5 g/dl) was measured. Distilled water containing sodium chloride at 0.55 g/dl, 0.60 g/dl, 0.65 g/dl was used as a comparison target. Using a linear measurement method, the corresponding marks were put down as positions in the straight lines showing the sodium chloride concentrations of 1.0 time (0.50 g/dl), 1.1 times (0.55 g/dl), 1.2 times (0.60 g/dl), 1.3 times (0.65 g/dl). For sensory marks, the positions put down by the panelists were measured, averaged and shown as the salty taste enhancement ratio (times) wherein n=5. […] The “initial taste” is the evaluation of the strength of the salty taste for 2 seconds after placing in the mouth, and the “middle and after taste” is a combination of middle taste and after taste, which is the evaluation of the strength of the salty taste after 2 seconds from placing in the mouth.

[1] = sensory evaluation FIG. 2 compared with FIG. 3

O=C(NCCc1c[nH]c2ccc(O)cc12)c1c(O)cccc1O [Example 35, 2,6-dihydroxy-N-(2-(5-hydroxy-1H-indol-3-yl)ethyl)benzamide]
salty taste enhancing activity (0.00005 to 0.0040 g/dl in distilled water containing sodium chloride 0.5 g/dl, n=5, FIG. 2): has a salty taste enhancing activity
concentration region in which salty taste enhancing effect and ENaC activation current began to show [1]: ≤ 0.0001 g/dL
concentration region in which salty taste enhancing effect and ENaC activation current reach plateau [1]: exceeding 0.0010 g/dl
